We go through 4 compounds from US12319677B2, “Process for the production of 5-(4-((2S,5S)-5-(4-chlorobenzyl)-2-methyl-morpholino)piperidin-1-yl)-1H-1,2,4-triazol-3-amine” (Molecure S.A., priority 2019, dated 2025).

Common to all, as to assay type: physicochemical
Data set [1] can be described thus: Stability of process intermediates (in methanol / as free base). From the text: Under conditions described in the patent application WO 2017/037670 (sodium triacetoxy-borohydride, acetic acid and 1,2-dichloroethane), the compound of formula 11 reacts with N-Boc-4-piperidinone leading to a by-product of formula 12 which is observed in crude compound of formula 3. The impurity of formula 12 can be removed by the careful purification on silica gel but such an approach is unacceptable on a kilo-scale. […] Since the compound of formula 11 can be easily removed by crystallization after removal of the tert-butoxycarbonyl protection group, the present invention relates to a method for the synthesis of the compound of formula 5 with no impurity of formula 13. Moreover, the conditions described in this application unobviously allow one to use hydrochloride salt of the compound of formula 2 as the starting material which can facilitate the process. […]
Due to the fact that the compound of formula 6 is not stable in methanol, it is not possible to obtain the hydrated form II directly from the compound 6 as for hydrated form I of the compound of formula 1. […] The XPRD data for the dried material and data calculated from X-ray structure differ. […]

A short description of data set [2]: Solid-state stability of the hydrated forms upon drying. The following applies: leads to amorphous form. From the text: Due to the fact that the compound of formula 6 is not stable in methanol, it is not possible to obtain the hydrated form II directly from the compound 6 as for hydrated form I of the compound of formula 1. Both hydrated forms I and II of the compound of formula 1 are unstable, leading to amorphous form upon drying. The XPRD data for the dried material and data calculated from X-ray structure differ. […] The amorphous form of the compound of formula 1 can be prepared in a more convenient way by melting the anhydrous form or hydrated form I or II of the compound of formula 1 followed by cooling off the material to ambient temperature. After grinding the glass-like solid, […] of the compound of formula 1 is an off-white solid.

Data set [3] is described as follows: Particle size distribution (PSD), Malvern Mastersizer 2000 in Isopar G. The following applies: three batches of the anhydrous form made by method D. From the text: The synthesis of the compound of formula 1 hydrated form I followed by the synthesis of the compound of the formula 1 anhydrous form has a significant advantage as compared to the synthesis of the compound of formula 1 described in WO 2017/037670. Under new conditions, the precipitation of the compound of the formula 1 hydrated form I unobviously allows to control the amount of residual hydrazine which is considered as a genotoxic impurity and must be controlled at ppm levels. The method outlined in the previous paragraph was used for the synthesis of three batches of the anhydrous form of the compound of formula 1. This material was carefully analyzed for purity, residual hydrazine level and particle size distribution.
PSD data were recoded with Malvern Mastersizer 2000 in Isopar G.

Several values for one entry are separate records, joined by “and”; a condition that tells them apart may be missing. Equal entries are not always repeated.

With `C[C@H]1CN[C@@H](Cc2ccc(Cl)cc2)CO1` [compound 2, (2S,5S)-5-(4-chlorobenzyl)-2-methylmorpholine], the “Stability of free base” value in data set [1] (free base (oil), must be kept as a salt to prevent decomposition) is recorded as “limited stability”.

Turning to `CS/C(=N\C#N)N1CCC(N2C[C@H](C)OC[C@@H]2Cc2ccc(Cl)cc2)CC1` [compound 6, methyl (Z)-4-((2S,5S)-5-(4-chlorobenzyl)-2-methylmorpholino)-N-cyanopiperidine-1-carbimidothioate], the Stability in methanol result in data set [1] (in methanol) is recorded as “not stable”. With `C[C@H]1CN(C2CCN(c3nc(N)n[nH]3)CC2)[C@@H](Cc2ccc(Cl)cc2)CO1` [1, hydrated form I, 5-(4-((2S,5S)-5-(4-chlorobenzyl)-2-methylmorpholino)piperidin-1-yl)-1H-1,2,4-triazol-3-amine], in data set [2], the “Stability of crystalline form” value is “unstable”. As for `C[C@H]1CN(C2CCN(c3nc(N)n[nH]3)CC2)[C@@H](Cc2ccc(Cl)cc2)CO1` [1, anhydrous form, 5-(4-((2S,5S)-5-(4-chlorobenzyl)-2-methylmorpholino)piperidin-1-yl)-1H-1,2,4-triazol-3-amine], in data set [3], the “Particle size distribution D10” value was 152 μm and 202 μm and 154 μm; the “Particle size distribution D50” value is 255 μm and 357 μm and 284 μm; the “Particle size distribution D90” value was 403 μm and 577 μm and 485 μm.
